Literature values in patent US8178105B2, “Composition containing Agaricus blazei Murill” (Kyowa Hakko Bio Co., Ltd., priority 2006, dated 2012).

Tested on: Sarcoma-180
Conditions: oral administration; Sarcoma-180 transplanted mouse; non-patent document 5

N=C(N)NCCC[C@H](N)C(=O)O [arginine]
antitumor effect and life extension (in words): marked antitumor effect and life extension
